Laboratory results reported in patent publication US20240156104A1, “FUNGI-DERIVED COMPOSITION, ITS PRODUCTION PROCESS AND USES” (NATURAL RESOURCES INSTITUTE FINLAND (LUKE), priority 2021, published 2024).

Tested on: coxsackievirus A9 (CVA9)
Assay: cytopathic effect (CPE) inhibition assay against CVA9 in A549 cells
Format: cell-based
Settings: virus treated 37° C. 1 hour; for antiviral activity of commercial ganoderic acids against CVA9 (FIG. 10B): 12.5 μM, 25 μM, 50 μM, 100 μM and 500 μM, MOI 100; for antiviral activity of commercial ganoderic acid against CVA9 (FIG. 10A): 100 μM, 500 μM, 1 mM, 5 mM and 10 mM

| Compound | antiviral activity of commercial ganoderic acids against CVA9 (FIG. 10B) | antiviral activity of commercial ganoderic acid against CVA9 (FIG. 10A) (MOI 66.7) | antiviral activity of commercial ganoderic acid against CVA9 (FIG. 10A) (MOI 66.7, listed as Ganoderic Acid A) |
| --- | --- | --- | --- |
| C/C(=C\CC[C@@H](C)[C@H]1C[C@H](O)[C@@]2(C)C3=CC[C@H]4C(C)(C)C(=O)CC[C@]4(C)C3=CC[C@]12C)C(=O)O [GA TR, Ganoderic Acid TR] | fails to demonstrate any antiviral activity | – | – |
| C/C(=C\CC[C@@H](C)[C@H]1CC[C@@]2(C)C3=CC[C@H]4C(C)(C)[C@@H](O)CC[C@]4(C)C3=CC[C@]12C)C(=O)O [GA Y, Ganoderic Acid Y] | fails to demonstrate any antiviral activity | – | – |
| C[C@H](CC(=O)C[C@@H](C)[C@H]1C[C@H](O)[C@@]2(C)C3=C(C(=O)C[C@]12C)[C@@]1(C)CCC(=O)C(C)(C)[C@@H]1C[C@@H]3O)C(=O)O [GA A, Ganoderic Acid A] | – | fails to demonstrate any antiviral activity | does not possess any antiviral activity |
| CC(=O)O[C@H]1C[C@H]([C@H](C)CC/C=C(\C)C(=O)O)[C@@]2(C)CC=C3C(=CC[C@H]4C(C)(C)C(=O)CC[C@]34C)[C@]12C [GA TQ, Ganoderic Acid TQ] | fails to demonstrate any antiviral activity | – | – |
